Assays:
[1] = target: T1, cyclic AMP phosphodiesterase (Oryctolagus cuniculus, UniProt G1ST54); assay: Obstructive action against cyclic AMP phosphodiesterase; format: biochemical, rabbit; settings: 1.0 μmol cyclic AMP, pH 8.0, 30° C., read-out: phosphodiesterase obstruction rate
T1 construct: the supernatant was collected to use it as a crude enzyme solution; from tissue; host or cells: rabbit platelets (from platelet-rich plasma), 100,000 xg supernatant, DEAE-cellulose fraction
T1 sequence (G1ST54 1-1128): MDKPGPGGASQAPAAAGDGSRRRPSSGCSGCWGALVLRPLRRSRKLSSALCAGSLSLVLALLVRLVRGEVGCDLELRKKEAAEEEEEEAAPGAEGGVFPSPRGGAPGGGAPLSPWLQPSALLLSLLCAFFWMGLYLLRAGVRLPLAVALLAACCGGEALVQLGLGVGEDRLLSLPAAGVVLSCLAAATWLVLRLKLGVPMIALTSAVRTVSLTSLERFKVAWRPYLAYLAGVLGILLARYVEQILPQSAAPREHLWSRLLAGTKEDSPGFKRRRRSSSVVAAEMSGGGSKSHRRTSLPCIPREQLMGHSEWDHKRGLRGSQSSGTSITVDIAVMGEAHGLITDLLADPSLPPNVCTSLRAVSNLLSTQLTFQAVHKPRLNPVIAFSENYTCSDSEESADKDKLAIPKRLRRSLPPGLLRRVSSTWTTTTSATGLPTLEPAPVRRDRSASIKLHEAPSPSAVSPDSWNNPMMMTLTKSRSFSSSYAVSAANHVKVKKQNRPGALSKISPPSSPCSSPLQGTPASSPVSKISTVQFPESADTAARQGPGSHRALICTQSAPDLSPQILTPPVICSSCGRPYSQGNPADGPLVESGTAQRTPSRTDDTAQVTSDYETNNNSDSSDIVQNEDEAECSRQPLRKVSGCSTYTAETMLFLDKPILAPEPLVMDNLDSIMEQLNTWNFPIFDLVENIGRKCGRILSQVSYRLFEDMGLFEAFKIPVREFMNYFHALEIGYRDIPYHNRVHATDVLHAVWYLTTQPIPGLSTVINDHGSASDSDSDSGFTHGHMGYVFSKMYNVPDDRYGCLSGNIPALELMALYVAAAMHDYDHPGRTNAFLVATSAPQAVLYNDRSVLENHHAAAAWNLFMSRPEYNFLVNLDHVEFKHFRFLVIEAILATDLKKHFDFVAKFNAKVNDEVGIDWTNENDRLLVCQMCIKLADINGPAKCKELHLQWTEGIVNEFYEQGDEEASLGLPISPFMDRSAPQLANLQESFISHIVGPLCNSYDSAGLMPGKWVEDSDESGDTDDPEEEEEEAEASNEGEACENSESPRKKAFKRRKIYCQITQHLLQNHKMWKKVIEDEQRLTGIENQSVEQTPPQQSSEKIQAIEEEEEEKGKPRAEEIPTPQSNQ
Description: The obstructive action against cyclic AMP phosphodiesterase was measured according to the activity measuring method described in "Biochimica et Biophysica Acta", Vol. 429, pp. 485-497 (1976) and "Biochemical Medicine", Vol. 10, pp. 301-311 (1974).
That is, for determining the obstructive activity against cyclic AMP phosphodiesterase, 10 ml of a solution obtained by adding 1 mmol of MgCl2 into 50 mmol of tris-hydrochloric acid buffer with pH 7.4 was added to the platelets obtained by further centrifuging the abovesaid rabbit PRP at 3,000 r.p.m. for 10 minutes, and the suspended platelets were ground by a Teflon potter type homogenizer. This was followed by two times of freezing and thawing treatment and 300-second fracturing with 200 watt supersonic waves. After additional 60-minute centrifugation with 100,000 xg, the supernatant was collected to use it as a crude enzyme solution.
10 Milliliters of this crude buffer solution was added to a 1.5×20 cm DEAE-cellulose column which has previously been buffered with 50 mmol of tris-acetate buffer (pH 6.0), followed by washing and elution with 30 ml of 50 mmol tris-acetate buffer, and this buffer solution was subjected to linear gradient elution with 0 to 0.5 moles of sodium acetate-tris-acetatebuffer. The flow rate was 0.5 ml/min, and 5 ml of each fraction was batched out. […] This fraction was used as cyclic AMP phosphodiesterase.
0.1 Milliliter of an aqueous solution of each test compound of a specified concentration was mixed with 40 mmol of tris-hydrochloric acid buffer (pH 8.0, containing 50 μg of cow serum albumin and 4 mmol of MgCl2) containing predetermined 1.0 μmol of cyclic AMP (tritium cyclic AMP), and 0.2 ml of this mixed solution was used as substrate solution.
0.2 Milliliter of the above-prepared cyclic AMP phosphodiesterase of a predetermined concentration was added to said substrate solution and the mixture was reaction at 30° C. for 20 minutes, producing tritium 5'-AMP from the tritium cyclic AMP.
The reaction system was then immersed in boiling water for 2 minutes to stop the reaction, and then this reaction solution was cooled in ice water and, for converting the produced tritium 5'-AMP into tritium adenosine, the solution was added with 0.05 ml (1 mg/ml) of snake poison as 5'-nucleotidase and reacted at 30° C. for 10 minutes. The whole amount of this reaction solution was then added to a cation exchange resin (AG 500 W×4, 200-400 meshes, manufactured by Bio-Rad Co., column size: 0.5×1.5 cm), and the produced tritium anodesine alone was allowed to combine, washed with 6 ml of distilled water and eluted with 1.5 ml of 3 N-ammonia water. The whole quantity of the elutant was added with 10 ml of a triton-toluene type scintillator and the produced tritium adenosine was measured by a liquid scintillation counter to determine the phosphodiesterase activity.
In this way, the phosphodiesterase activation value (Vs) of the test compounds of the respective concentrations was determined, and the phosphodiesterase obstruction rate (%) was determined from said activation value (Vs) and control value (Vc) (obtained from water not containing any test compound) from the following formula: [formula]

[2] = tested on: rabbit platelet; assay: ADP-induced aggregation in rabbit platelets (AG-II Aggregometer); format: cell-based
Procedure, shortened: (§1)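 Rabbit citrated PRP, diluted with PPP to 300,000/mm^3 platelets for ADP or 450,000/mm^3 for collagen, was preincubated with compound 1 min at 37° C. before inducer was added. ADP at 7.5×10^-5 M or collagen supernatant in Auren Beronal buffer pH 7.35; transmittance change recorded, percent inhibition derived.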

[3] = tested on: rabbit platelet; assay: Collagen-induced aggregation in rabbit platelets (AG-II Aggregometer); format: cell-based
Procedure, shortened: as §1

[4] = tested on: Male mice; assay: Acute toxicity test, oral administration to mice; format: in vivo
Description: The test compounds were administered orally to the mice and LD50 (mg/kg) of the compounds was determined.

inhibition at 100 µM ([1]; 10^-4 mole) [%]	inhibition at 10 µM ([1]; 10^-5 mole) [%]	inhibition at 1 µM ([1]; 10^-6 mole) [%]	inhibition at 0.1 µM ([1]; 10^-7 mole) [%]	SMILES	Inhibition effect on ADP-induced aggregation in rabbit platelet ([2]; 10^-4 mole) [%]	Inhibition effect on ADP-induced aggregation in rabbit platelet ([2]; 10^-5 mole) [%]	Inhibition effect on collagen induced aggregation in rabbit platelet ([3]; 10^-4 mole) [%]	Inhibition effect on collagen induced aggregation in rabbit platelet ([3]; 10^-5 mole) [%]	LD50 [4] [mg]
98.5	85.7	67.4	3.2	CC(C)Cn1c(=O)n(C)c(=O)c2[nH]cnc21 [1-Methyl-3-isobutylxanthine, 1-methyl-3-isobutylxanthine, reference compound]	–	–	–	–	–
–	–	–	–	O=C1CCc2cc(OCCCC(=O)Nc3c(Cl)cccc3Cl)ccc2N1 [compound 21, 6-[3-(o,o-Dichloroanilinocarbonyl)propoxy]-3,4-dihydrocarbonstyril]	36.8	5.3	95.1	27.6	> 1000
